Data taken from publication PMC6060383, “Synthesis and pharmacological evaluation of novel isoquinoline N-sulphonylhydrazones designed as ROCK inhibitors” (Journal of Enzyme Inhibition and Medicinal Chemistry, 2018).
In brackets after ≈: the same amount, converted by molar mass. Entries after “also recorded” stand apart in the source; their conditions may differ.

How the values were obtained:
[1] = target: T1, ROCK1 human recombinant enzyme (Homo sapiens, UniProt Q13464); assay: ROCK1 inhibition assay (Eurofins-Cerep, phosphorylation of Ulight-RRRSLLE substrate); format: biochemical; settings: for inhibition at 3 µM: screening concentration 3 μM, average of two experiments; for IC50: human recombinant ROCK1, five-point assay, mean of two experiments
T1 construct: purchased EUROFINS-CEREP France (contract assay, study numbers 100033685 and 100040481); host or cells: Sf9 insect cells
T1 sequence (Q13464 whole entry): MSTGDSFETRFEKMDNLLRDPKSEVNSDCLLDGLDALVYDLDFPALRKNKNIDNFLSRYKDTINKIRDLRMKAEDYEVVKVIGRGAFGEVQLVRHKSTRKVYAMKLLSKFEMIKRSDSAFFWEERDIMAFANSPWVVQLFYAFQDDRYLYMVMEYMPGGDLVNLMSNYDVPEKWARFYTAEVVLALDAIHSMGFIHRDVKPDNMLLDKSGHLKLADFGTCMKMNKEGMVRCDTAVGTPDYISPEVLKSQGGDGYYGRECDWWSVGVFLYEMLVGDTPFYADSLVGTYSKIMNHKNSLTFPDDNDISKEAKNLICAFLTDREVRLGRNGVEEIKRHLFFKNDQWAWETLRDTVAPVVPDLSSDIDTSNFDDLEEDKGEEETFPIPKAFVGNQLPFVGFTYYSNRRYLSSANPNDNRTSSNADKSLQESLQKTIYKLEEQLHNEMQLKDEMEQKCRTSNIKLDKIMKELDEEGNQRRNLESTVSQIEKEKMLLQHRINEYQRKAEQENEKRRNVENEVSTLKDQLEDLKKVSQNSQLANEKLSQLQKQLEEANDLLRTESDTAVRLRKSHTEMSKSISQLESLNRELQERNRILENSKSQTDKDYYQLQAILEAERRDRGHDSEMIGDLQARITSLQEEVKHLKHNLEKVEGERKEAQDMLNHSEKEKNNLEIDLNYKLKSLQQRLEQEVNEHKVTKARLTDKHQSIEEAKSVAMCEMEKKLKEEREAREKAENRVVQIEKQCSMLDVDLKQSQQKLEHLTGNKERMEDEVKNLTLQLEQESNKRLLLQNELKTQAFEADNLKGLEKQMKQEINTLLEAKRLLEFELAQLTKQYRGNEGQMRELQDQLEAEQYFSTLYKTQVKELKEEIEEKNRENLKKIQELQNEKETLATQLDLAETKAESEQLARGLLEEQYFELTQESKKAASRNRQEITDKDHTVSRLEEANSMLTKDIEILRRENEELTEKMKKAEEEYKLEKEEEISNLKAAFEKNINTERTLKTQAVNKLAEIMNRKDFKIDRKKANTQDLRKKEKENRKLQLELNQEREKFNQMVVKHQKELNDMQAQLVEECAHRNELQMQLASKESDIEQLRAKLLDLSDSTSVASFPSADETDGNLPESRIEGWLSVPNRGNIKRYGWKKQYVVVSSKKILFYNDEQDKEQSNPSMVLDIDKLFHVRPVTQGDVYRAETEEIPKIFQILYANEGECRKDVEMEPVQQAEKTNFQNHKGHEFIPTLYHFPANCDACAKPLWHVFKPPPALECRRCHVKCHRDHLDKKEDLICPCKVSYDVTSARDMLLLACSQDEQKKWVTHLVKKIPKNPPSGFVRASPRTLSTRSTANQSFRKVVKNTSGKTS
Protocol: (§1) The analysis was performed using software developed at Cerep (Hill software) and GraphPad Prism® 5.0 (GraphPad Software, Inc., San Diego, CA) and validated through comparison with results generated using the SigmaPlot 4.0 software.
(§2) Prior to this assay, we evaluated the solubility of these compounds in water (buffer pH 7.4) to ensure that the inhibition percentages were not influenced by the precipitation of the compounds under test conditions.

[2] = target: T2, ROCK2 human recombinant enzyme (Homo sapiens, UniProt O75116); assay: ROCK2 inhibition assay (Eurofins-Cerep, phosphorylation of Ulight-RRRSLLE substrate); format: biochemical; settings: for inhibition at 3 µM: screening concentration 3 μM, average of two experiments; for IC50: human recombinant ROCK2, five-point assay, mean of two experiments
T2 construct: purchased EUROFINS-CEREP France (contract assay, study numbers 100033685 and 100040481); host or cells: Sf21 insect cells
T2 sequence (O75116 1-543 limits assumed): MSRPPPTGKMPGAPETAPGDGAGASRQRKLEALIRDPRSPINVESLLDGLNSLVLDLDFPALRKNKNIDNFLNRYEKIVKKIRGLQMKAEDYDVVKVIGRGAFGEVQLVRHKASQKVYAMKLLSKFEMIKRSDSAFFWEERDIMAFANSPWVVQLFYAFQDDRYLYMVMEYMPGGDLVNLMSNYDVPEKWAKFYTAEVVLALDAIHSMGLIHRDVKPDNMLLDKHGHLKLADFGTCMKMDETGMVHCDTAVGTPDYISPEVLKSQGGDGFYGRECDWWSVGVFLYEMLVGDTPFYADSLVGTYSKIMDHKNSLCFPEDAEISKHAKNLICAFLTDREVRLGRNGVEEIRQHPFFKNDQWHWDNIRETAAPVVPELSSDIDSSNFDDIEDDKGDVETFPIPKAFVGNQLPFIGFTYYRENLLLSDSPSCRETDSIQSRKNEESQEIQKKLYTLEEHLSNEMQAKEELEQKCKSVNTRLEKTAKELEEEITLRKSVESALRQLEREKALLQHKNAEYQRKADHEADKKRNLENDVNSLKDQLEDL
Protocol: as §1, §2

[3] = Water solubility assay (UV spectrophotometric method); format: physicochemical; settings: aqueous buffer, thermodynamic from solid, water (buffer pH 7.4), stirring 4 h at 37 °C
Protocol: The solubility assay was performed considering the absorptivity of compounds under ultraviolet spectroscopy as described by Schneider et al.[20] Assay wavelength was determined through λmax characteristic of each compound. Saturated aqueous solutions were prepared (0.8–1.0 mg/mL) and kept under stirring for 4 h at 37 °C. The supernatant was filtered in […] filters and transferred to a quartz cuvette (10 mm) for spectra acquisition. Solubility was determined by linear regression used as Excel graph plots, solutions were prepared by dilutions of the original solution in methanol. Data were collected in triplicate and the mean values were used to create the graph plots. The correlation coefficient (R^2) values were between 0.9982 and 1.
The N-sulphonylhydrazone derivatives 5a–h were evaluated for their ability to inhibit both ROCK1 and ROCK2 isoforms by measuring the phosphorylation of the Ulight-RRRSLLE substrate using human recombinant enzymes expressed in Sf9[23] and Sf21^24 cells, respectively. Prior to this assay, we evaluated the solubility of these compounds in water (buffer pH 7.4) to ensure that the inhibition percentages were not influenced by the precipitation of the compounds under test conditions. The enzymatic assay was initially performed at a screening concentration of 3 μM, which is capable of guaranteeing the solubility of most of the compounds, and the obtained results are shown in Table 2.

[4] = target: T3, IKK-β (Homo sapiens, UniProt O14920); assay: IKK-β inhibition screening; format: biochemical; settings: screening concentration of 10 μM; data not shown
T3 sequence (O14920 1-756): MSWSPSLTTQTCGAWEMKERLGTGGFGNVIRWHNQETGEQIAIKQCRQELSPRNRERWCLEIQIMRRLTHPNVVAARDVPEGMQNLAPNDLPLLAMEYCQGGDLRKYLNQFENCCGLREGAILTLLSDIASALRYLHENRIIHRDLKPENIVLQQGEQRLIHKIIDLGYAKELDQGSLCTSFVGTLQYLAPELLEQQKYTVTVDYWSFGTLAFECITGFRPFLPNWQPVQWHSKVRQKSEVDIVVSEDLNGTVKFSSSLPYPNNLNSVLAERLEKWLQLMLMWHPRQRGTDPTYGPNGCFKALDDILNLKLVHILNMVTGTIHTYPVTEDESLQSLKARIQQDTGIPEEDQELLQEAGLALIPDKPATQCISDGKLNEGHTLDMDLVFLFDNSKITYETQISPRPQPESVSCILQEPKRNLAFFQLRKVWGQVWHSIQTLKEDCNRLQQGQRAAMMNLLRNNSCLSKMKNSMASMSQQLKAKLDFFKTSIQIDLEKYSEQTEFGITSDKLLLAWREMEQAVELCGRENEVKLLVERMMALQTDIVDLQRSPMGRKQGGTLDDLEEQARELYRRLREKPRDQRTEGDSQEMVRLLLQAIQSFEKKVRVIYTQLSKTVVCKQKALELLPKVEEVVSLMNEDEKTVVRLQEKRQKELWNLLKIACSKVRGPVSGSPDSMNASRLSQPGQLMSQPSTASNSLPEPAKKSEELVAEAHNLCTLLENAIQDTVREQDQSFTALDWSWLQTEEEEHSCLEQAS
Excerpt: Furthermore, considering that 2 (LASSBio-1524) was used in the structural design of this new family of ROCK inhibitors we also investigated the ability of 5b (LASSBio-2020) and 11 (LASSBio-2065) to inhibit IKK-β.

[5] = test system: MDA-MB 231 cells; assay: Plasma membrane integrity assay (LDH); format: cell-based, human; settings: 0.1 to 30 µM, 24 and 48 h
Protocol: (§3) The human mammary gland/breast epithelial cell line MDA-MB 231 was obtained from the American Type Culture Collection (ATCC® HTB-26™) and this use was approved by the Ethics Committee for Animal Care and Use in Scientific Research from the Federal University of Rio de Janeiro. Cells were routinely grown in RPMI medium containing 10% foetal bovine serum (FBS), 1% L-glutamine and 1% penicillin-streptomycin, in a humidified 5% CO2 atmosphere at 37 °C. Cells were cultured up to 70–100% confluence and then some cultures were treated with the compounds at different concentrations for 24 or 48 h. All cell culture reagents were purchased from Invitrogen (São Paulo, Brazil).
To measure plasma membrane integrity, we assayed serum lactate dehydrogenase (LDH) levels and calculated percentages of LDH release to the medium. LDH activity was measured spectrophotometrically using a commercial kit (Doles, Goiás, Brazil). […] Then, 10 μl of NAD were added and absorbance intensities were measured in a microplate reader (FlexStation® 3 Reader, Molecular Devices) at 490 nm. The percentage of LDH release was calculated by ([LDH] sample ×100)/total [LDH]. […]
We also analysed the plasma membrane integrity by measuring the serum lactate dehydrogenase (LDH) levels in the culture medium to confirm the cell viability data. […]

[6] = test system: MDA-MB 231 cells; assay: Cell-based scratch assay (cell migration); design: species or system human; settings: 10 or 30 μM, 24 h
Protocol: as §3
Cells were cultured in 24-well culture plates for 24 h up to 90–100% confluence. Scratched wound lines were created with the help of a 200 μl micropipette tip. […] Images were acquired with an Olympus DP71 digital camera (Olympus, Japan) and the wound area was quantified using Fiji software (based on ImageJ, http://imageJ.nih.gov/ij/) from three different experiments.
The functions of Rho-kinase include the regulation of cellular contraction, motility, morphology, polarity, division, and gene expression. Therefore, we performed a cell-based scratch assay followed by the quantification of the wounded area to analyse whether compounds 5b (LASSBio-2020) and 11 (LASSBio-2065) altered cell migration. […]

[7] = Chemical stability study (pH 2.0 and pH 7.4 buffers); format: physicochemical; settings: 37 °C
Protocol: Two microliters ([…]) of a concentrated solution of the compound under examination (40 mM stock solution solubilized in DMSO) and 248 μL of acid (0.2 M potassium chloride and 0.2 M HCl; pH 2.0) or neutral (phosphate dibasic, pH 7.4) buffer were added to a 2 ml Eppendorf microtube. After vortexing, the mixture was placed in a water bath at 37 °C under vigorous stirring for 0, 30, 60, 120, and 240 min. After each reaction, 248 μL of basic buffer (phosphate buffer, pH 8.4) was added to neutralize the pH of the medium in the experiments using acidic buffer. The compound was extracted using 1 ml of acetonitrile followed by vigorous vortexing and freezing of the aqueous phase (−10 °C). The organic phase was separated, filtered, and analysed using an HPLC-PDA (acetonitrile/water […], 0.05% of TFA).
Due to the possible chemical instability of the imine functional group present in the N-sulphonylhydrazone framework, the stability profiles of compounds 5b (LASSBio-2020) and 11 (LASSBio-2065) were determined. The study was conducted under two conditions, pH 2.0 and pH 7.4, to mimic the acidic stomach and the neutral plasma environments, respectively. The compounds were examined in the presence of acid (pH 2) and neutral (pH 7.4) buffers with stirring for 240 min at a controlled temperature (37 °C).

[8] = ROCK inhibition assays, 1 to 50 µM

| Structure (SMILES) | inhibition at 3 µM [1] [%] | inhibition at 3 µM [2] [%] | solubility at 4 h [3] [µM] | melting point [°C] | other results |
| --- | --- | --- | --- | --- | --- |
| CN(C)c1ccc(/C=N/NS(=O)(=O)c2cccc3cnccc23)cc1 [Compound 5a, (E)-N′-(4-(dimethylamino)benzylidene)isoquinoline-5-sulphonohydrazide] | 4.1 | 0.6 | 5.4 (≈ 1.91 µg/mL) | 165 | – |
| O=[N+]([O-])c1ccc(/C=N/NS(=O)(=O)c2cccc3cnccc23)cc1 [Compound 5c, (E)-N′-(4-nitrobenzylidene)isoquinoline-5-sulphonohydrazide] | 1.1 | 8.1 | 26 (≈ 9.27 µg/mL) | 168 | – |
| O=S(=O)(N/N=C/c1cccnc1)c1cccc2cnccc12 [Compound 5d, (E)-N′-(pyridin-3-ylmethylene)isoquinoline-5-sulphonohydrazide] | 4.5 | 7.6 | > 64 | 168 | – |
| CC(=O)Nc1ccc(/C=N/NS(=O)(=O)c2cccc3cnccc23)cc1 [Compound 5e, (E)-N-(4-((2-(isoquinolin-5-ylsulphonyl)hydrazono)methyl)phenyl)acetamide] | 4.6 | -9.1 | 4.3 (≈ 1.58 µg/mL) | 173 | – |
| O=S(=O)(N/N=C/c1ccc(B(O)O)cc1)c1cccc2cnccc12 [Compound 5f, (E)-(4-((2-(isoquinolin-5-ylsulphonyl)hydrazono)methyl)phenyl)boronic acid] | 2.7 | 7.3 | 58 (≈ 20.6 µg/mL) | > 250 | – |
| O=S(=O)(N/N=C/c1ccc(-c2ccccc2)cc1)c1cccc2cnccc12 [Compound 5g, (E)-N′-([1,1'-biphenyl]-4-ylmethylene)isoquinoline-5-sulphonohydrazide] | -1.1 | 2.4 | < 0.5 | 166 | – |
| Cl.O=S(=O)(N/N=C/C1CCNCC1)c1cccc2cnccc12 [Compound 5h, (E)-N′-(piperidin-4-ylmethylene)isoquinoline-5-sulphonohydrazide hydrochloride] | 6.9 | 3.9 | > 84.5 | 186 | – |
| O=C(N/N=C/c1ccccc1)c1cccc2cnccc12 [Compound 10, (E)-N′-benzylidene isoquinoline-5-carbohydrazide] | – | – | – | – | ROCK1 inhibition (result in words) [1, 8]: completely inactive; IC50 ([1]; 1 to 50 µM): > 50 µM; ROCK2 inhibition (result in words) [2, 8]: completely inactive; IC50 ([2]; 1 to 50 µM): > 50 µM |
| CN(/N=C/c1ccccc1)S(=O)(=O)c1cccc2cnccc12 [Compound 11, (E)-N′-benzylidene-N-methylisoquinoline-5-sulphonohydrazide] | – | – | – | 108 | decrease in the IC50 for ROCK1 relative to 5b ([1]; N-methylated 11 versus 5b): approximately 4 fold; IC50 ([1]; 1 to 50 µM): 3.1 µM; decrease in the IC50 for ROCK2 relative to 5b ([2]; N-methylated 11 versus 5b): ~1.8 fold; IC50 ([2]; 1 to 50 µM): 3.8 µM; IKK-β inhibition (result in words) [4]: none of these N-sulphonylhydrazone derivatives was able to inhibit IKK-β; LDH levels in culture medium / cytotoxicity in LDH assay (result in words) [5]: not altered; effect on cell migration (result in words) [6]: inhibited MDA-MB 231 cell migration; also recorded: effective at inhibiting cell migration; recovery percentage under acidic conditions ([7]; pH 2, after 30 min of incubation): 88%; degradation in neutral medium ([7]; pH 7.4, after 4 h): less than 20% |
